Measurements from patent US9402831B2, “Combination therapy of HSP90 inhibitors with BRAF inhibitors” (Synta Pharmaceuticals Corp., priority 2011, dated 2016).

Columns and labels:
RKO = assay: Cell viability assay (Cell Titer-Glo), RKO; assay type: cell-based; conditions: Homo sapiens, carcinoma, BRAF V600E, read-out: Ganetespib IC50
Description: (§1) Cell viability was measured using the Cell Titer-Glo assay (Promega). In brief, cells were plated in 96-well plates in triplicate at optimal seeding density (determined empirically for each cell line) and incubated at 37° C., 5% CO2 atmosphere for 24 hr prior to the addition of drug or vehicle (0.3% DMSO) to the culture medium. At the end of the assay, Cell Titer-Glow was added to the wells per manufactures recommendation, shaken for two minutes and incubated for 10 minutes at room temperature. Luminescence (0.1 sec) was measured with a Victor II microplate reader (Perkin Elmer) and the resulting data were used to calculate cell viability, normalized to vehicle control.

SW872 = assay: Cell viability assay (Cell Titer-Glo), SW872; assay type: cell-based; conditions: Homo sapiens; SW872, liposarcoma, BRAF V600E; read-out: Ganetespib IC50
Description: as §1

SH-4 = assay: Cell viability assay (Cell Titer-Glo), SH-4; assay type: cell-based; conditions: Homo sapiens; SH-4, malignant melanoma, BRAF V600E; read-out: Ganetespib IC50
Description: as §1

SW982 = assay: Cell viability assay (Cell Titer-Glo), SW982; assay type: cell-based; conditions: Homo sapiens; SW982, synovial sarcoma, BRAF V600E; read-out: Ganetespib IC50
Description: as §1

A375 melanoma cells = assay: Western blotting, A375 cells; assay type: cell-based, human; conditions: A375, 24 hr, western blot
Description: (§2) Human melanoma cell lines carrying the V600E BRAF mutation (A375, SK-MEL-28, RPMI-7951) and human prostate cancer cells (LNCaP, 22Rv1) were purchased from the American Type Culture Collection (Manassas, Va.) and grown following ATCC recommendations, in the presence of fetal bovine serum (10%), 2 mM L-glutamine and antibiotics (100 IU/ml penicillin and 100 μg/ml streptomycin) purchased from Sigma Aldrich. Cells were maintained at 37° C., 5% CO2 atmosphere.
(§3) Cells, treated with compound for 24 hr, were lysed in RIPA buffer (CST, Danvers, Mass., USA) on ice and clarified by centrifugation. Equal amounts of proteins were resolved by SDS-PAGE and immunoblotted with indicated antibodies. The antigen-antibody complex was visualized and quantitated using an Odyssey system (LI-COR, Lincoln, Nebr., USA).

A375 = assay: Cell viability assay (Cell Titer-Glo), A375; assay type: cell-based; conditions: Homo sapiens, A-375; A375, malignant melanoma, BRAF V600E; read-out: Ganetespib IC50
Description: as §2, §1

HTC-C3 = assay: Cell viability assay (Cell Titer-Glo), HTC-C3; assay type: cell-based; conditions: Homo sapiens; HTC-C3, carcinoma, BRAF V600E; read-out: Ganetespib IC50
Description: as §1

K5 = assay: Cell viability assay (Cell Titer-Glo), K5; assay type: cell-based; conditions: Homo sapiens; K5, carcinoma, BRAF V600E; read-out: Ganetespib IC50
Description: as §1

COLO-829 = assay: Cell viability assay (Cell Titer-Glo), COLO-829; assay type: cell-based; conditions: Homo sapiens; COLO-829, malignant melanoma, BRAF V600E; read-out: Ganetespib IC50
Description: as §1

MMAC-SF = assay: Cell viability assay (Cell Titer-Glo), MMAC-SF; assay type: cell-based; conditions: Homo sapiens, malignant melanoma, BRAF V600E, read-out: Ganetespib IC50
Description: as §1

SK-MEL-5 = assay: Cell viability assay (Cell Titer-Glo), SK-MEL-5; assay type: cell-based; conditions: Homo sapiens; SK-MEL-5, malignant melanoma, BRAF V600E; read-out: Ganetespib IC50
Description: as §1

ACN = assay: Cell viability assay (Cell Titer-Glo), ACN; assay type: cell-based; conditions: Homo sapiens, neuroblastoma, BRAF V600E, read-out: Ganetespib IC50
Description: as §1

UACC-257 = assay: Cell viability assay (Cell Titer-Glo), UACC-257; assay type: cell-based; conditions: Homo sapiens; UACC-257, malignant melanoma, BRAF V600E; read-out: Ganetespib IC50
Description: as §1

SK-MEL-28 melanoma cells = assay: Western blotting, SK-MEL-28 cells; assay type: cell-based, human; conditions: SK-MEL-28, 24 hr, western blot, FIG. 1
Description: as §2, §3

A101D = assay: Cell viability assay (Cell Titer-Glo), A101D; assay type: cell-based; conditions: Homo sapiens, malignant melanoma, BRAF V600E, read-out: Ganetespib IC50
Description: as §1

SK-HEP-1 = assay: Cell viability assay (Cell Titer-Glo), SK-HEP-1; assay type: cell-based; conditions: Homo sapiens, SK-HEP1; SK-HEP-1, carcinoma, BRAF V600E; read-out: Ganetespib IC50
Description: as §1

[1] = tested on: human cancer cells harboring the V600E mutation in BRAF; assay: Cell viability, panel of BRAF mutant cancer cell lines; assay type: cell-based; conditions: large panel of human cancer cells harboring BRAF V600E; read-out: IC50 across panel
Description: as §1

DBTRG-05MG = assay: Cell viability assay (Cell Titer-Glo), DBTRG-05MG; assay type: cell-based; conditions: Homo sapiens, glioma, BRAF V600E, read-out: Ganetespib IC50
Description: as §1

MZ7-mel = assay: Cell viability assay (Cell Titer-Glo), MZ7-mel; assay type: cell-based; conditions: Homo sapiens, malignant melanoma, BRAF V600E, read-out: Ganetespib IC50
Description: as §1

RVH-421 = assay: Cell viability assay (Cell Titer-Glo), RVH-421; assay type: cell-based; conditions: Homo sapiens; RVH-421, malignant melanoma, BRAF V600E; read-out: Ganetespib IC50
Description: as §1

RPMI-7951 melanoma cells [2] = assay: Cell viability assay, RPMI-7951 melanoma cells; assay type: cell-based; conditions: Homo sapiens; RPMI-7951 cells; read-out: IC90 cell killing
Description: as §2, §1

LS-411N = assay: Cell viability assay (Cell Titer-Glo), LS-411N; assay type: cell-based; conditions: Homo sapiens, carcinoma, BRAF V600E, read-out: Ganetespib IC50
Description: as §1

IST-MEL1 = assay: Cell viability assay (Cell Titer-Glo), IST-MEL1; assay type: cell-based; conditions: Homo sapiens; IST-MEL1, malignant melanoma, BRAF V600E; read-out: Ganetespib IC50
Description: as §1

HT-144 = assay: Cell viability assay (Cell Titer-Glo), HT-144; assay type: cell-based; conditions: Homo sapiens; HT-144, malignant melanoma, BRAF V600E; read-out: Ganetespib IC50
Description: as §1

RPMI-7951 melanoma cells [3] = assay: Western blotting, RPMI-7951 cells; assay type: cell-based, human; conditions: western blot, FIG. 5
Description: as §2, §3

[4] = tested on: B-raf V600E in melanoma cell line A375; conditions: cited from earlier work
[5] = tested on: B-raf mutants in COS cells; conditions: cited from earlier work

Compound `CC(C)c1cc(-c2nnc(O)n2-c2ccc3c(ccn3C)c2)c(O)cc1O` [Ganetespib, 3-(2,4-DIHYDROXY-5- ISOPROPYL-PHENYL)-4-(1- METHYL-INDOL-5-YL)-5- HYDROXY-[1,2,4]TRIAZOLE] has an IC50 (RKO) of 4 nM, an IC50 (SW872) of 22 nM and an IC50 (SH-4) of 12 nM. For the same compound, the IC50 (SW982) was 10 nM, the “MEK and ERK activity” value (A375 melanoma cells; FIG. 1) was “loss of MEK and ERK activity” and the “destabilizing mutant BRAF” value (A375 melanoma cells; FIG. 1) was “fully capable of destabilizing mutant BRAF”. For the same compound, the Cdc2 stability (A375 melanoma cells; FIG. 2) was “destabilized Cdc2”, the “PI3K and mTOR-mediated phosphorylation of AKT and 4EBP1” value (A375 melanoma cells; FIG. 2) was “suppressed” and the “apoptosis as determined by PARP cleavage” value (A375 melanoma cells; FIG. 2) was “resulting in apoptosis”. The “destabilization of BRAF dimerization partner CRAF” value (A375 melanoma cells; FIG. 3) was “able to destabilize”, the “potency in deactivating/dephosphorylating ERK versus PLX-4032 or AZD6244” value (A375 melanoma cells; FIG. 3) was “greater potency” and the IC50 (A375) was 20 nM. For the same compound, the IC50 (HTC-C3) was 21 nM, the IC50 (K5) was 11 nM and the IC50 (COLO-829) was 5 nM. For the same compound, the IC50 (MMAC-SF) was 31 nM, the IC50 (SK-MEL-5) was 18 nM and the IC50 (ACN) was 4 nM. The IC50 (UACC-257) was 24 nM, the “MEK and ERK activity” value (SK-MEL-28 melanoma cells) was “loss of MEK and ERK activity” and the “destabilizing mutant BRAF” value (SK-MEL-28 melanoma cells) was “fully capable of destabilizing mutant BRAF”. It also gave an IC50 (A101D) of 9 nM, an IC50 (SK-HEP-1) of 9 nM and an IC50 [1] of 4 to 40 nM. It also gave an IC50 (DBTRG-05MG) of 14 nM, an IC50 (MZ7-mel) of 26 nM and an IC50 (RVH-421) of 26 nM. It also gave an IC90 (RPMI-7951 melanoma cells [2]) of 10 nM, an IC50 (LS-411N) of 5 nM and an IC50 (IST-MEL1) of 4 nM. The IC50 (HT-144) was 6 nM, the AKT activity (RPMI-7951 melanoma cells [3]; RPMI-7951, 24 hr) was “effectively inhibited” and the “MEK and ERK activity” value (RPMI-7951 melanoma cells [3]; RPMI-7951, 24 hr) was “effectively inhibited”.
In the case of `C=CCNC1=C2C[C@@H](C)C[C@H](OC)[C@H](O)[C@@H](C)/C=C(\C)[C@H](OC(N)=O)[C@@H](OC)/C=C\C=C(/C)C(=O)NC(=CC1=O)C2=O` [Compound 17AAG], the “B-raf degradation rate versus wild type B-raf CHL cells” value [4] is listed as “degraded more rapidly”, the “degradation of B-raf mutants E586K and L597V” value ([5]; cells treated with 17AAG) is listed as “not sensitive to degradation” and the “degradation of B-raf mutants V600D, G469A, G469E, G596R, G466V, G594V” value ([5]; transvected into COS cells, versus wild type B-raf) is listed as “degraded more rapidly than wild type B-raf”.
In the case of `Cn1cnc2c(F)c(Nc3ccc(Br)cc3Cl)c(C(=O)NOCCO)cc21` [AZD6244, reference compound], the “suppression of ERK phosphorylation” value (RPMI-7951 melanoma cells [3]; RPMI-7951 (overexpress COT), 24 hr) is reported as “neither the MEK inhibitor AZD6244 nor the BRAF inhibitor PLX-4032 were capable of suppressing ERK phosphorylation”.
